Experimental data from PubChem BioAssay (NCI).
“And” between values parts separate entries of the source, which are not always exact repeats. Equal entries are not always repeated.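 Cultured in 96-well plates, cells were exposed to test compound for 48 hours across five concentrations. The concentration for 50% growth inhibition is given as GI50. At the TGI there is no net growth.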

Experiments:
Assay in all cases: DTP human tumour cell line panel, 48 h
786-0 renal = test system: 786-0 renal
UACC-62 melanoma = test system: UACC-62 melanoma
SR leukemia = test system: SR leukemia
NCI-H23 lung = test system: NCI-H23 lung
SF-295 CNS = test system: SF-295 CNS
CAKI-1 renal = test system: CAKI-1 renal
EKVX NSCLC = test system: EKVX NSCLC
KM12 colon = test system: KM12 colon
RXF 393 renal = test system: RXF 393 renal
ACHN renal = test system: ACHN renal

| SMILES | GI50 (786-0 renal) | TGI (786-0 renal) | GI50 (UACC-62 melanoma) | TGI (UACC-62 melanoma) | GI50 (SR leukemia) | TGI (SR leukemia) | GI50 (NCI-H23 lung) | TGI (NCI-H23 lung) | GI50 (SF-295 CNS) | TGI (SF-295 CNS) | GI50 (CAKI-1 renal) | TGI (CAKI-1 renal) | GI50 (EKVX NSCLC) | TGI (EKVX NSCLC) | GI50 (KM12 colon) | TGI (KM12 colon) | GI50 (RXF 393 renal) | TGI (RXF 393 renal) | GI50 (ACHN renal) | TGI (ACHN renal) |
| --- | --- | --- | --- | --- | --- | --- | --- | --- | --- | --- | --- | --- | --- | --- | --- | --- | --- | --- | --- | --- |
| CCCC[C@@H]1NC(=O)[C@H](CCCCN)NC(=O)[C@H](CCCNC(=N)N)NC(=O)[C@H](CC(C)C)NC(=O)[C@@H](NC(=O)[C@H](Cc2cccc(Cl)c2)NC(=O)[C@@H]2CCCN2C(=O)[C@@H](NC(C)=O)C(C)C)CCSSC[C@@H](C(=O)N[C@@H](CCCCN)C(=O)N2CCC[C@H]2C(=O)N2CCC[C@H]2C(=O)N[C@@H](CCC(=O)O)C(N)=O)NC(=O)[C@H](Cc2ccccc2)NC(=O)[C@H](CO)NC(=O)[C@H](C)NC(=O)[C@@H]2CCCN2C1=O | > 50 µM | > 50 µM | > 50 µM | > 50 µM | > 50 µM | > 50 µM | > 50 µM | > 50 µM | > 50 µM | > 50 µM | > 50 µM | > 50 µM | > 50 µM | > 50 µM | > 50 µM | > 50 µM | > 50 µM | > 50 µM | > 50 µM | > 50 µM |
| COc1ccc(-c2cc(C(=O)Nc3cccc(C(F)(F)F)c3)[nH]c(=S)n2)cc1 |  | > 100 µM |  | > 100 µM |  | > 100 µM |  | > 100 µM |  | > 100 µM |  | > 100 µM |  | > 100 µM |  | > 100 µM |  | > 100 µM |  | > 100 µM |
| COc1cc(OC)c(-c2cc(=O)c3c(OC)c(OC)c(OC)c(OC)c3o2)cc1OC |  | > 100 µM |  | > 88.5 µM |  | > 100 µM |  | > 100 µM |  | > 100 µM |  | > 100 µM |  | > 100 µM |  | > 100 µM |  | > 100 µM |  | > 100 µM |
| Cn1ncc2c(Nc3ccc(Br)cc3)nc(Nc3ccc(Br)cc3)nc21 | 2.4 µM | 5.32 µM | 2.32 µM | 6.82 µM | 1.69 µM | 5.21 µM | 3.63 µM | 16.2 µM | 1.82 µM | 4.03 µM | 1.87 µM | 4.49 µM | 2.48 µM | 9.73 µM | 1.76 µM | 3.48 µM | 2.81 µM | 7.57 µM | 3.74 µM | 13 µM |
| Cc1c(Cl)ccc2c1NC(=O)C2(O)CC(=O)c1ccc(Cl)cc1Cl (configuration not stated) |  | > 50 µM |  | > 50 µM |  | 0.826 µM |  | > 50 µM |  | > 50 µM |  | > 50 µM |  | > 50 µM |  | > 50 µM |  | 48.9 µM |  | > 50 µM |
| O=C(CC12CC3CC(CC(C3)C1)C2)NCCOCCOCCNC(=O)c1cc2c(o1)C(=O)c1ccccc1C2=O | 2.05 µM | 4.7 µM | 0.271 µM | 0.748 µM | 1.08 µM | 6.55 µM | 0.133 µM | 0.469 µM | 0.663 µM | 1.94 µM | 1.46 µM | 3.86 µM | 1.84 µM | 3.53 µM | 1.58 µM | 5.13 µM | 1.34 µM | 2.65 µM | 1.35 µM | 2.72 µM |
| O=C(Cc1ccccc1)Oc1ccc2c(-c3ccccc3)c(C(=O)Nc3ccc(Cl)cc3)c(=O)oc2c1 |  | > 100 µM |  | > 100 µM |  | > 100 µM |  | > 100 µM |  | > 100 µM |  | > 100 µM |  | > 100 µM |  | > 100 µM |  | > 100 µM |  | > 100 µM |
| COc1ccc(-c2cc3c4c(nc5ccccc5c4c2)CC(c2cc(OC)c(OC)c(OC)c2)O3)cc1 (configuration not stated) | 1.92 µM | 3.74 µM | 3.54 µM | 20.1 µM | 2.08 µM | > 100 µM | 3.75 µM | 18.5 µM | 3.5 µM | 12.5 µM | 1.52 µM | 3.06 µM | 5.01 µM | > 100 µM | 3.78 µM | > 100 µM | 1.92 µM | 4.65 µM | 1.58 µM | 3.11 µM |
| COc1ccc(OC)c(/C=C/[N+](=O)[O-])c1 |  | 4.09 µM and 3.21 µM | 1.98 µM and 4.37 µM | 5.34 µM and 12.1 µM | 0.467 µM and 0.865 µM | 1.85 µM and 3.92 µM |  | 13.6 µM and 8.12 µM | 3.09 µM | 9.46 µM and 11.4 µM |  | 7.74 µM and 7.64 µM | 2.42 µM and 6.47 µM | 6.18 µM and 16.7 µM | 2.6 µM and 13.3 µM | 7.27 µM and 27.4 µM | 1.8 µM | 3.59 µM and 3.54 µM |  | 4.49 µM and 3.28 µM |
| O=C(NNc1nc2cc(F)ccc2n2c(CN3CCOCC3)ccc12)c1ccccc1 | 0.305 µM | 1.98 µM | 0.244 µM | 1.14 µM | 0.0639 µM |  | 0.567 µM | 2.7 µM | 0.181 µM | 1.52 µM | 0.223 µM | 1.5 µM | 0.142 µM | 1.7 µM | 0.369 µM | 2.45 µM | 0.363 µM | 2.06 µM | 0.079 µM | 1.41 µM |
| CN(C(=O)c1ccc(F)cc1C(F)(F)F)C1CCN(c2nnc(-c3ccnn3C)c3ccccc23)CC1 | > 100 µM | > 100 µM | 28.9 µM | > 100 µM | 50.9 µM | > 100 µM | 29.3 µM | > 100 µM | 31.5 µM | > 100 µM | 31.9 µM | > 100 µM | 19.4 µM | > 100 µM | 52.8 µM | > 100 µM | 17.4 µM | > 84.3 µM | 51.7 µM | > 100 µM |
| CN(C)CCNC(=O)c1ccc2ccc3cccnc3c2n1 |  | > 100 µM |  | 30.4 µM |  | 30.7 µM |  | 42.2 µM |  | 88.2 µM |  | > 85.5 µM |  | 48.3 µM |  | 95.6 µM |  | 27.3 µM |  | 97.3 µM |
| CC(C)(C)C1CC[C@H]2c3c([nH]c4ccc(Br)cc34)[C@H]3C(=O)N(c4ccccc4)C(=O)[C@H]3[C@H]2C1 (some centres not stated) |  | 23.6 µM |  | 87.4 µM |  | 12.1 µM |  | > 100 µM |  | 43.1 µM |  | > 100 µM |  | > 100 µM |  | > 100 µM |  | > 100 µM |  | > 100 µM |
| Cc1nc2sc(C(=O)Nc3cccc4ccccc34)c(N)c2cc1C(C)O (configuration not stated) | 0.227 µM | > 50 µM | 0.243 µM | > 50 µM | 0.15 µM | > 50 µM | 0.394 µM | > 50 µM | 0.171 µM | > 50 µM | 0.192 µM | > 50 µM | 0.446 µM | > 50 µM | 0.199 µM | > 50 µM | 0.151 µM | > 50 µM | 0.284 µM | > 50 µM |
| O=C(Cn1ccnc1[N+](=O)[O-])N(CCO)CCO |  | > 250 µM | > 943 µM | > 250 µM and 1240 µM |  | > 79 µM | > 1250 µM | > 1250 µM | > 185 µM | > 753 µM | > 1250 µM | > 1250 µM | > 1250 µM | > 1250 µM | > 1250 µM | > 1250 µM | > 1250 µM | > 1250 µM |  | > 250 µM |
| CCOc1ccc(NC(=O)Nc2cc(C(C)C)ccc2C)cc1 | 2.64 µM | 6.72 µM | 16.2 µM | > 89.8 µM | 0.952 µM | > 22.9 µM | 16.4 µM | 98.1 µM | 7.45 µM | 25.4 µM | 6.35 µM | 28.2 µM | 8.55 µM | > 96.7 µM | 11.6 µM | > 100 µM | 1.64 µM | 4.9 µM | 4.37 µM | 14.7 µM |
| O=C(NO)c1ccc(C(=O)NO)cc1 |  | > 100 µM |  | > 100 µM |  | > 100 µM |  | > 100 µM |  | > 100 µM |  | > 100 µM |  | > 100 µM |  | > 100 µM |  | > 100 µM |  | > 100 µM |
| C=CCN1C(=O)CS/C1=N\NC(=O)c1c(C)nc2sccn12 |  | > 100 µM |  | > 100 µM |  | > 100 µM |  | > 100 µM |  | > 100 µM |  | > 100 µM |  | > 100 µM |  | > 100 µM |  | > 100 µM |  | > 100 µM |
| C[C@@H]1O[C@@H](O[C@H]2C[C@@H](O)[C@]3(CO)C4C(CC[C@]3(O)C2)[C@@]2(O)CC[C@H](C3=CC(=O)OC3)[C@@]2(C)C[C@H]4O)[C@H](O)[C@H](O)[C@H]1O (some centres not stated) | 0.018 µM | 0.0687 µM | 0.0819 µM | 0.151 µM | 0.0105 µM | 0.0317 µM | 0.0163 µM | 0.0602 µM | 0.0196 µM | 0.098 µM | 0.0166 µM | 0.0679 µM | 0.0151 µM | 0.0518 µM | 0.0512 µM | 0.132 µM | 0.0115 µM | 0.0291 µM | 0.0148 µM | 0.0461 µM |
| O=C(c1ccccc1)c1ccc(-c2ccc(O)cc2)cc1 | 17.8 µM | > 66.8 µM | 0.687 µM | 33.7 µM | 3 µM | 18.1 µM | 6.16 µM | 42.7 µM | 2.43 µM | 10.5 µM | 2.35 µM | 9.84 µM | 4.42 µM | 41.5 µM | 2.85 µM | 22.3 µM | 7.93 µM | 33.2 µM | 6.88 µM | 36.3 µM |
| O=S(=O)(c1cccc(C(F)(F)F)c1)N1c2ccccc2-n2cccc2C1c1cccnc1 (configuration not stated) |  | > 62.3 µM |  | > 59.5 µM |  | 71.9 µM |  | > 100 µM |  | > 100 µM |  | > 100 µM |  | > 100 µM |  | > 100 µM |  | > 53.9 µM |  | > 74.1 µM |
| CN(C(=O)C1CCCCC1)c1ccccc1I(=O)=O | 43.3 µM | > 100 µM | 72.4 µM | > 100 µM | 13.7 µM | 36.1 µM | 45.2 µM | > 100 µM | 36.5 µM | > 100 µM | 36.8 µM | > 100 µM | 43.4 µM | > 100 µM | 37.8 µM | > 100 µM | 68.5 µM | > 100 µM | 39.4 µM | > 100 µM |
